Structures are written as SMILES. ≈ marks a conversion by molar mass, not a printed value. Where two headings read alike, the source gives them in different places.

The nature of data set [1]: pH-dependent aqueous solubility (UV spectrophotometry). The format is physicochemical. The note with it: aqueous buffer, thermodynamic from solid, 37 °C. Here is the method:
A stock solution of the target compound was prepared by dissolving 1 mg in methanol, and the wavelength of greatest absorption of each compound was obtained by scanning between wavelengths from 200 nm to 500 nm. Six dilutions were prepared from the stock solution and the absorbance reading in the UV spectrophotometer (SpectraMax M5, Molecular Devices, USA). The calibration curve with linear regression was created with the values obtained, and the solubility test was measured by correlating the concentration with the absorbance obtained by ultraviolet. Each compound was added in excess at phosphate buffer solution pH 5.8 and 7.4 to obtain a supersaturated solution that was kept under stirring for 4 h at 37 °C and then was filtered through a 0.45 µm filter for reading at the corresponding wavelengths. The solubility was determined through the equation of the straight line obtained by the linear regression of the calibration curve of the compounds [24, 25].

Data set [2] concerns PC-3, MCF7, K562, CCRF-CEM and MOLT-4. Description: MTT single-concentration cytotoxicity screening. As to conditions: single concentration 30 μM; reduction in cell viability ≥ 50% selected for CC50. The format is cell-based, human. Here is the method: In a first approach, the assay was validated with two standard drugs: gedatolisib and GSK-1059615.
After understanding the response profile of the selected cell lines to the treatment with gedatolisib and GSK-1059615, we investigated the cytotoxic activity of compounds 5a-f at a single concentration (30 μM). […] During the experiments, compounds 5a (LASSBio-2250), 5b (LASSBio-2251) and 9 (CAS-942789959) were insoluble and precipitated on the culture medium. Therefore, they were evaluated also at the screening concentration of 1 μM.
Cell viability was assessed by the MTT assay. The lines selected for this study were plated according to their respective densities, which ranged from 3 × 10^4 to 4 × 10^4 cells per well. Subsequently, they were treated with test compounds at different concentrations (0.00003 μM to 150 μM), gedatolisib and GSK-1059615.
After incubation, the plates are centrifuged at 440× g for 10 min. Then, 110 μL of the supernatant was withdrawn and each well received 10μL of the MTT solution. The plate was again incubated in an oven at 37 °C and 5% CO2 for 3 to 4 h. At the end of the incubation time, 100 μL of SDS-HCL detergent was added to solubilize the formazan crystals. The plate was shaken on an automatic overnight shaker and then read at a wavelength of 595 nm on the Molecular Devices Spectramax M5 plate reader.

For data set [3], the system named is PI3K activation and phosphorylation in MOLT-4 cell line. Description: Muse PI3K Activation Dual Detection Kit. The format is cell-based, human. The note with it: MOLT-4, concentration 10 times lower than its CC50. As to the method: The methodology evaluates the activation and phosphorylation of PI3K and was performed from the labelling with the Guava Muse Luminex® PI3K Activation Dual Detection Kit (catalog n^o. MCH200103, Luminex) containing the anti-AKT/PKB-PECy5 antibody to measure total PI3K and the anti-phospho-AKT (Ser473)-Alexa Fluor® 555 antibody for measurement of activated PI3K.
Following 48 h of incubation in an incubator at 37 °C with 5% CO2, 1 mL of the cell solution was transferred to an Eppendorf tube, washed with PBS and centrifuged at 300× g for 5 min. The supernatant was discarded, and the pellet formed was resuspended in 500 µL of PBS. The samples were again centrifuged at 300× g for 5 min and the supernatant discarded.
Then the cell solutions were resuspended in 200 µL of assay buffer (Part no. CS202124), followed by the addition of 200 µL of fixation buffer (Part n^o. CS202122), ending up with a total volume of 400 µL per sample. The samples were incubated for 5 min on ice and centrifuged at 300× g for 5 min and the supernatant discarded.
Cells were permeabilized by adding 200 µL of ice-cold permeabilization buffer (Part n^o. CS202125) and then incubated on ice for 5 min and centrifuged at 300× g for 5 min, and the supernatant was discarded. The formed pellets were resuspended in 450 µL of assay buffer and vortexed at medium speed. In total, 90 µL of the solution from each sample was aliquoted into a new tube, and 10 µL of the cocktail solution containing Anti-phospho-Akt (Ser473), Alexa Fluor®555 and Anti-Akt/PKB, Pecy5 was added. The samples were homogenised and incubated for 30 min in the dark at room temperature.
After the incubation step, 100 µL of assay buffer was added per sample and centrifuged at 300× g for 5 min, and the supernatant was discarded. The formed pellets were resuspended in 200 µL of assay buffer and vortexed, and the samples were read in Guava Muse Luminex®. Data from three independent experiments performed in duplicate were analysed in the Prism6 program to determine the percentage of cells expressing activated and inactivated PI3K.

Data set [4] is described as follows: Microsomal metabolic stability. The format is in vitro ADME. As to conditions: for Metabolization Rates: 10 μM; for half-life at 10 μM / recovery at 10 µM: rat. As to the method: To investigate the metabolic stability of LASSBio-2252 (5f), the compound was incubated with rat liver microsomes in the presence and in the absence of the NADPH-generating system. Metabolization rate, half-life (t1/2) and apparent intrinsic clearance (Clapp) were calculated.
The metabolic stability of compound 5f (LASSBio-2252) was studied as previously described, and 1 mg/mL of […] rat microsomes was incubated with compound […] (10 μM) in the presence and in the absence of the cofactor (i.e., NADPH generating system). After mixing and incubation at 37 °C in a shaking water bath for 1 h, 500 µL cold acetonitrile containing the internal standard was added to terminate the reaction at different time intervals (0, 15, 30, 45 and 60 min). After mixing and centrifugation at 10,500× g for 15 min at 4 °C, the supernatant was filtered and then was injected into the HPLC system using a mixture of methanol: water acidified (0.1% formic acid, pH 3.0) (50:50, v/v) as the mobile phase at a flow rate of 1.0 mL/min. After analysing the results, the pharmacokinetic parameters were calculated as microsomal half-life (t1/2) and apparent intrinsic clearance (Clapp).

Data set [5] relates to CCRF-CEM (human leukemia cell line). Further details: method as in Gazi and coworkers [14]. As to conditions: ref Gazi and coworkers [14]; cited from earlier work.
Setting [6] is: rat liver microsomes, NADPH-generating system absent.
The mark [7] stands for this setting: rat liver microsomes, NADPH-generating system present.

As a reminder, the solubility is the concentration that dissolves in the medium under given conditions. For orientation: half-life means the time needed for the level to fall by half in the phase considered. A lower half-life goes with fast loss. `c1ccc(N2CCN(c3nc(N4CCCNCC4)nc(N4CCOCC4)n3)CC2)cc1` [5f, 4-(4-(1,4-Diazepan-1-yl)-6-(4-phenylpiperazin-1-yl)-1,3,5-triazin-2-yl)morpholine]: the solubility at 4 h in data set [1] (phosphate buffer pH 5.8 (duodenum), read-out: Solubility pH 5.8) came out at 39.3 µM (≈ 16.7 µg/mL); in data set [1] (phosphate buffer pH 7.4 (plasma), read-out: Solubility pH 7.4), 42.4 µM (≈ 18 µg/mL). Also, the “cytotoxic effect on leukemia cell lines at single concentration” value in data set [2] is recorded as “cytotoxic effect”. Moreover, the “reduction of PI3K-mediated phosphorylation” value in data set [3] is listed as 79%. Moreover, the “Elimination Rate Constant (k)” value in data set [4] (setting [6]) was determined as 0.0017; in data set [4] (setting [7]) it was 0.0015. The “Metabolization Rates” value in data set [4] (setting [6]) worked out at 9.09%; in data set [4] (setting [7]), 2.90%. The half-life at 10 μM in data set [4] (liver microsomes) is over 6 h; in data set [4] (setting [6]) it was 6.79 h; in data set [4] (setting [7]), 7.7 h. Further, the recovery at 10 µM in data set [4] (liver microsomes, NADPH-generating system absent) worked out at 100%; in data set [4] (liver microsomes, NADPH-generating system present), 101%.

Broadly, the CC50 is the concentration at which the toxic effect on the cells reaches its halfway point. On to `CN(C)C1CCN(C(=O)c2ccc(NC(=O)Nc3ccc(-c4nc(N5CCOCC5)nc(N5CCOCC5)n4)cc3)cc2)CC1` [Gedatolisib, gedatolisib], for which the cytotoxic concentration (CC50) in data set [5] is 23 nM.

(Values after publication PMC9964390, “Design, Synthesis and Phenotypic Profiling of Simplified Gedatolisib Analogues” (Pharmaceuticals, 2023).)
